Bridge positions count the residues as written; N and C are the ends.
What was measured:
mussel CALCRIIa = experiment: Calcium mobilization assay (apoaequorin bioluminescence), dose-response, HEK 293 cells expressing mussel CALCRIIa; type: cell-based, Mytilus galloprovincialis; conditions: calcium mobilization, HEK 293/apoaequorin, 1 μM to 0.01 nM
Description: (§1) The complete sequence of the Mediterranean mussel CALCRIa was amplified using specific primers (Table 1) from cDNA of a tissue mixture (mantle, adductor muscle, gills, gonads) using a proofreading DNA polymerase (iProof BIORAD, Portugal) and cloned into the pGEMT-easy vector (PROMEGA, Spain). The Mediterranean mussel CALCRIIa transcript that was found in the mantle transcriptome was incomplete and lacked the N-terminus (by comparisons with the hard-shelled mussel homologue) and so the remaining sequence (from 1–393 bp) was deduced from the hard-shelled mussel homologue receptor and the receptor was synthesised and supplied by GENESCRIPT (USA). The complete transcripts for mussel CALCRIc, CALCRIIb and CALCRIIc were only found in the hard-shelled mussel mantle transcriptome and homologues were only found in the Mediterranean mussel genome as they were absent from the species mantle transcriptome and so they were also synthesised and supplied by GENESCRIPT (USA) using the hard-shelled mussel receptor sequences as template. The mussel CALCRIb transcript was incomplete and lacked both N and C-terminal regions and it was not possible to obtain the complete transcript either by searching both mussels mantle transcriptomes or the Mediterranean mussel genome and so it was not produced. All synthetized receptors were provided in the pUC57 cloning vector by the company and receptor codon usage was optimized to favour a high level of expression in mammalian cells.
Mammalian cell cultures and transfections followed the methodology described by[89],[90]. Mammalian HEK293 cells (ECACC, UK) were used and they were maintained in complete Dulbecco’s modified Eagle’s medium (DMEM, 4.5 g/l glucose, 110 mg/l sodium pyruvate and L-glutamine, SIGMA-ALDRICH, Spain) supplemented with 10% sterile foetal bovine serum (FBS), 0.1% penicillin: streptomycin antibiotic mix (10,000 U:10 mg/ml, Sigma) and 250 μg /ml sterile filtered 1:100 amphotericin B solution (SIGMA-ALDRICH) in a humid 5% CO2 incubator (HERAEUS, Portugal) at 37 °C. On the day prior to transfection, 2–3 × 10^5 HEK293 cells were seeded on 6 well plates (SARSTEDT, Portugal) and transfected with Fugene HD transfection reagent (2 DNA: 4 Fugene ratio, PROMEGA) following the manufacturer’s protocol. Seventy-two hours after transfection, 800 μg/ml of the antibiotic Geneticin (SIGMA-ALDRICH) was added to the medium to select and isolate stable receptor cell lines. Cell recovery was monitored daily and the medium was changed every two days until no cell death was observed. […]
(§2) HEK293 cells stably expressing five mussel receptors (CALCRIa, CALCRIc, CALCRIIa, CALCRIIb and CALCRIIc) were stimulated with the two mussel peptides and the vertebrate (human and salmon) calcitonins. Receptor activation was assessed in vitro by measuring two intracellular signalling pathways: a) production of cAMP and b) mobilization of calcium (Ca^2+). The cellular response was initially assessed using 10 μM of each peptide. […]
Stable cell lines expressing the mussel receptors were transiently co-transfected with the mitochondrial targeted apo-aequorin protein cloned in pcDNA3.1. Two days after transfection cells were washed, counted and resuspended in 1 ml of DMEM /F12 Ham (without phenol red)/0.1% BSA supplemented with 2 µM coelenterazine (SIGMA-ALDRICH). […] The injector system of the Biotek Synergy 4 microplate reader (USA) was used to inject 50 µl of the cell suspensions into wells containing 50 μl of the diluted peptide in DMEM / F12 Ham / 0.1% BSA. […]

mussel mantle cells = experiment: Calcium uptake by isolated mantle cells (calcein fluorescence); type: cell-based, Mytilus galloprovincialis; conditions: CALCIIa 10 μM, 4 hours, calcein 50 mM
Experimental: Figure 7 Effect of the mussel calcitonin-like peptide on (A) calcium (ppm) concentration in the mantle edge and (B) calcium uptake by mantle cells of the Mediterranean mussel. (A) The quantity of calcium (ppm) present in the mantle edge after mussel CALCIIa peptide incubation was measured using a Microwave Plasma-Atomic Emission Spectrometer (MP-AES, Agilent) at 393.366 nm. A standard curve for calcium was performed before analysing the samples. In vitro mantle assays with CALCIIa peptide and with ouabain and control (culture medium and mantle) were repeated on at least 3 independent occasions. […] An increase in cellular fluorescence represents an increase in calcium uptake. Fluorescence of the CALCIIa peptide stimulated cells was 1.9 times higher than the control. The average mantle cell size was 3–4 μm and fluorescent images were taken using a Leica DM IL microscope coupled to a Visicam HDMI 6 digital camera and photographs were analysed using ImageJ software (v. 1.52a) to calculate the fluorescence intensity and for image overlay. […]
Mantle cells were isolated from Mediterranean mussel mantle edge explants of the posterior region and were incubated with the CALCIIa peptide. […] Photographs were analysed for image overlay and to calculate fluorescence intensity (corrected total cell fluorescence, CTCF) using ImageJ software (v. 1.52a). […]

mussel CALCRIIc = experiment: Calcium mobilization assay (apoaequorin bioluminescence), dose-response, HEK 293 cells expressing mussel CALCRIIc; type: cell-based, Mytilus coruscus; conditions: HEK 293/apoaequorin, 1 μM to 0.01 nM
Description: as §1, with “The mussel CALCRIb transcript was incomplete and lacked both N and C-terminal regions and it was not possible to obtain the complete transcript either by searching both mussels mantle transcriptomes or the Mediterranean mussel genome and so it was not produced. All synthetized receptors were provided in the pUC57 cloning vector by the company and receptor codon usage was optimized to favour a high level of expression in mammalian cells.” left out
Mammalian cell cultures and transfections followed the methodology described by[89],[90]. […] Cell recovery was monitored daily and the medium was changed every two days until no cell death was observed. […]
as §2
Stable cell lines expressing the mussel receptors were transiently co-transfected with the mitochondrial targeted apo-aequorin protein cloned in pcDNA3.1. Two days after transfection cells were washed, counted and resuspended in 1 ml of DMEM /F12 Ham (without phenol red)/0.1% BSA supplemented with 2 µM coelenterazine (SIGMA-ALDRICH). […]

H-CTWGGGMSDEMCSTVDIDEIQRSFQVIHDRNSP-NH2 (disulfide 1-12 (inferred)) [CALCIIa, Mediterranean mussel calcitonin-like mature peptide, 33 aa, synthesized with disulphide bond and C-terminal amidation]
Activation of mussel CALCRIIa in dose-response analysis (in words) (mussel CALCRIIa): not activated
Increase in intensity of fluorescent calcium staining versus control mantle cells (mussel mantle cells; ImageJ CTCF): 1.9 times
Mean corrected total cell fluorescence (CTCF) of mantle cells (mussel mantle cells; control = 1405154): 2654581
Activation of mussel CALCRIIc in dose-response analysis (in words) (mussel CALCRIIc): exclusively activated

Reference: publication PMC7200681, “The calcitonin-like system is an ancient regulatory system of biomineralization” (Scientific Reports, 2020)
